Experimental data published in PubChem BioAssay (NCI).
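Where inhibition never reached the appropriate level, the endpoint shown equals the highest concentration tested. Otherwise, values were interpolated linearly from a five-concentration, 48-hour dose response in 96-well plates. TGI: total growth inhibition.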

Legend:
Assay in all cases: growth of human tumour cells (NCI), 48 h
[1] = test system: 786-0 renal
[2] = test system: A498 renal
[3] = test system: A549 NSCLC
[4] = test system: ACHN renal
[5] = test system: BT-549 breast
[6] = test system: CAKI-1 renal
[7] = test system: CCRF-CEM leukemia
[8] = test system: COLO 205 colon
[9] = test system: DU-145 prostate
[10] = test system: EKVX NSCLC
[11] = test system: HCC-2998 colon
[12] = test system: HCT-116 colon
[13] = test system: HCT-15 colon
[14] = test system: HL-60(TB) leukemia
[15] = test system: HOP-62 NSCLC
[16] = test system: HOP-92 NSCLC
[17] = test system: HS 578T breast
[18] = test system: HT29 colon
[19] = test system: IGROV1 ovarian
[20] = test system: K-562 leukemia
[21] = test system: KM12 colon
[22] = test system: LOX IMVI melanoma
[23] = test system: M14 melanoma
[24] = test system: MALME-3M melanoma
[25] = test system: MCF7 breast
[26] = test system: MDA-MB-231 breast
[27] = test system: MDA-MB-435
[28] = test system: MDA-N
[29] = test system: MOLT-4 leukemia
[30] = test system: NCI-H23 lung
[31] = test system: NCI-H460 lung
[32] = test system: NCI-H522 lung
[33] = test system: NCI/ADR-RES ovarian
[34] = test system: OVCAR-3 ovarian
[35] = test system: OVCAR-4 ovarian
[36] = test system: OVCAR-5 ovarian
[37] = test system: OVCAR-8 ovarian
[38] = test system: PC-3 prostate
[39] = test system: RPMI-8226 leukemia
[40] = test system: RXF 393 renal
[41] = test system: SF-268 CNS
[42] = test system: SF-295 CNS
[43] = test system: SF-539 CNS
[44] = test system: SK-MEL-2 melanoma
[45] = test system: SK-MEL-28 melanoma
[46] = test system: SK-MEL-5 melanoma
[47] = test system: SK-OV-3 ovarian
[48] = test system: SN12C renal
[49] = test system: SNB-19 CNS
[50] = test system: SNB-75 CNS
[51] = test system: SR leukemia
[52] = test system: SW-620 colon
[53] = test system: T-47D breast
[54] = test system: TK-10 renal
[55] = test system: U251 CNS
[56] = test system: UACC-257 melanoma
[57] = test system: UACC-62 melanoma
[58] = test system: UO-31 renal
[59] = test system: NCI-H226 lung

Measured: TGI

NC1=NCC(CN2CCCC2)O1 (stereo not drawn)
> 100 µM: [1] | [2] | [3] | [4] | [5] | [6] | [7] | [8] | [9] | [10] | [11] | [12] | [13] | [14] | [15] | [16] | [17] | [18] | [19] | [20] | [21] | [22] | [23] | [24] | [25] | [26] | [27] | [28] | [29] | [30] | [31] | [32] | [33] | [34] | [35] | [36] | [37] | [38] | [39] | [40] | [41] | [42] | [43] | [44] | [45] | [46] | [47] | [48] | [49] | [50] | [51] | [52] | [53] | [54] | [55] | [56] | [57] | [58]

Nc1nc(Cl)cc(NCC2(O)CCCC2)n1
> 100 µM: [1] | [2] | [3] | [4] | [5] | [6] | [7] | [8] | [9] | [10] | [11] | [12] | [13] | [14] | [15] | [16] | [17] | [18] | [19] | [20] | [21] | [22] | [24] | [25] | [26] | [27] | [28] | [29] | [59] | [30] | [31] | [32] | [33] | [34] | [35] | [36] | [37] | [38] | [39] | [40] | [41] | [42] | [43] | [44] | [45] | [46] | [47] | [48] | [50] | [51] | [52] | [53] | [54] | [55] | [56] | [57] | [58]

CN(C)C(=S)Oc1ccc2ccc(=O)oc2c1
> 100 µM: [1] | [2] | [3] | [4] | [5] | [6] | [8] | [9] | [10] | [11] | [12] | [13] | [14] | [15] | [16] | [17] | [18] | [19] | [21] | [22] | [23] | [24] | [25] | [26] | [27] | [28] | [29] | [59] | [30] | [31] | [32] | [33] | [34] | [35] | [36] | [37] | [38] | [39] | [40] | [41] | [42] | [43] | [44] | [45] | [46] | [47] | [48] | [49] | [50] | [51] | [52] | [53] | [54] | [55] | [56] | [57] | [58]

CCOP(=O)(Nc1ccc2oc(=O)c3ccccc3c2c1)OCC
> 100 µM: [1] | [2] | [3] | [4] | [5] | [6] | [7] | [8] | [9] | [10] | [11] | [12] | [13] | [15] | [16] | [17] | [18] | [19] | [20] | [22] | [23] | [24] | [25] | [26] | [27] | [28] | [29] | [59] | [30] | [31] | [32] | [33] | [34] | [35] | [36] | [37] | [38] | [40] | [41] | [42] | [43] | [44] | [45] | [46] | [48] | [49] | [50] | [51] | [52] | [53] | [54] | [55] | [56] | [57]
98.2 µM: [39]
55.8 µM: [14]
